Tests used:
[1] = system: innervated TE cornea constructs; test: Substance P release from innervated TE corneas (EIA); assay type: cell-based, chick; settings: for SP release versus controls: 1% capsaicin or 50 μM veratridine, P<0.05
Procedure: To elicit a functional response such as SP release, innervated TE cornea constructs were treated with capsaicin or veratridine. Briefly, innervated tissue engineered corneas were treated with a total of 1.5 ml of SHEM containing 8.5% Tween 80 and 1.5% ethanol either alone (control) or with 1) 1% (w/v) capsaicin, or 2) 50 μM veratridine. At 0, 1, 3, 6, 12 and 24 hours post-treatment, culture supernatants were collected, flash frozen in liquid nitrogen and stored at −80° C. Substance P content of the medium was measured using a substance P specific competitive peptide enzyme immunoassay (EIA) kit (Peninsula Laboratories). […] All groups, n 3. *P<0.001 versus control (2-way ANOVA).

[2] = system: nerve bundles growing into the cornea; test: Electrophysiological recording of evoked action potentials in TE corneas; assay type: cell-based, chick; settings: 50 mM lidocaine HCl; stimulation of ganglion cell cluster
Source text: Direct electrophysiological recording from the corneal epithelium was therefore conducted to confirm that nerve bundles growing into the cornea were able to conduct lidocaine-sensitive action potentials that were evoked by stimulation of the ganglion cell cluster (FIG. 3C, D). Tissue engineered corneas were transferred into an interface recording chamber, perfused with artificial saline containing (in mM): NaCl: 126, KCl: 3.0, MgSO4: 2.0, NaHCO3: 26, NaH2PO4 1.25, CaCl2: 2.0, dextrose: 10, oxygenated with 95% O2/5% CO2 at room temperature. Cathodal stimulation of ganglion cell clusters was done using silver wires pressed lightly against the surface and applying square wave stimulus pulses of 50 μs duration and typically 60-80 V in amplitude. Differential recordings of electrical responses from nerve fibre bundles were recorded with glass micropipettes (≈50 μm tips) filled with 150 mM NaCl. Because of the close proximity of the stimulation to the recording electrodes, a very large stimulus artefact was generated that obscured the very small action potentials (FIG. 3C, the action potential is indicted by the arrow).
To observe action potentials in isolation, evoked responses were recorded before and after addition of 50 mM lidocaine HCl. […]

neutrophils = test: Zymographic detection of metalloproteases; assay type: cell-based; settings: neutrophils added on top of collagen matrix
Procedure: Metalloproteinases MMPs) are a family of closely related zinc-containing enzymes whose principal function is thought to be an integral part of generalized tissue remodeling as well as the formation of new blood vessels. Zymography has the advantage that in addition to detecting enzyme activity it can be used to provide information about the molecular weight of an enzyme and so help identify the enzyme. To achieve this dissolved gelatin is incorporated into a polyacrylamide gel, samples are added to the gel, separated by electrophoresis and the gel allowed to incubate for a while to allow the enzymes to degrade the gelatin. When the gels are stained for proteins clear lysis bands are apparent where the metalloproteinases have degraded the gelatin.

HUVEC = test: Effect of growth factors and retinyl acetate on angiogenesis in the sclera model; assay type: cell-based, Human
Procedure: The fibrinogen solution (3 mg/ml) was mixed with the thrombin solution (1.75 mg/ml) at a ratio of 1:0.03 v/v in wells of different sizes. Within a minute, enzymatic polymerization of fibrinogen gave fibrin gels under gentle agitation at 37° C. To incorporate endothelial cells in the fibrin matrix and to induce angiogenesis, endothelial cells were firstly seeded on the bottom of gelatin-coated wells at high density to provide a confluent monolayer at 48 hours. […] Fibrin gels were obtained again within a minute. Within 2 weeks of culture at 37° C. with 5% CO2, tube like vessels were generated within the matrix that associated together in order to form cord structures. These were visible by light microscopy and were counted in order to give an indication of vessel numbers. A combinatorial approach was utilized to evaluate what factors are required to achieve the optimal number of blood vessels within this sclera model. The pseudo sclera was generated as per Section 3.1.3. […] The effectiveness of the growth factors in positively affecting angiogenesis was evaluated by counting the number of tubes identified in a dish by brightfield microscopy. […] The effect of RA on angiogenesis was evaluated in the system described above. […] Blood vessel formation was evaluated by counting the number of vessels within a treated dish. […]

Which “release of SP versus controls” value ([1]; 1% (w/v) capsaicin, 1, 3, 6, 12 and 24 hours, P<0.001) does the source give for `COc1cc(CNC(=O)CCCC/C=C/C(C)C)ccc1O` [capsaicin] here?
Its value is “significantly greater”.

What about the “SP release versus controls” value ([1]; 6 hours post-treatment) of the same compound?
Its value is “significant increase”.

And the “SP release versus controls” value ([1]; 24 hours post-treatment)?
The value was “significant increase”.

For `CCN(CC)CC(=O)Nc1c(C)cccc1C` [lidocaine], which “sensitivity of evoked action potentials” value [2] is on record?
The value was “lidocaine-sensitive”.

Which “stimulation of neutrophils (MMP-2 and MMP-9 detected)” value (neutrophils) does the source give for formyl-Met-Leu-Phe [FMLP] here?
Its value is “able to stimulate them”.

For `CC(=O)OC/C=C(C)/C=C/C=C(C)/C=C/C1=C(C)CCCC1(C)C` [RA, Retinyl acetate], which “number of blood vessels” value (HUVEC; high levels of RA) is on record?
Its value is “decreased”.

And the “Blood vessel formation (number of vessels)” value (HUVEC; various concentrations of RA)?
Its value is “increases in a dose dependent fashion and is optimal at an intermediate range”.
